# Data reported in patent US20060004043A1, “Indazole compounds and methods of use thereof” (priority 2003, published 2006).
# Target: Rsk1 (Rattus norvegicus, UniProt Q63531)
# Assay: Rsk1(r) kinase assay, 33P-ATP filter binding
# Assay type: biochemical
# Details: compound at 3 μM; [ATP] = 10 μM
# Description: The assays briefly described below in Examples 54-123 were carried out as described in Davies et al., Biochem. J., 351:95-105 (2000). All assays were carried out at 10 μM ATP unless otherwise noted.
# All kinases are pre-diluted to a 10× working concentration prior to addition into the assay. The composition of the dilution buffer for each kinase is described below in Table 3.
# In addition, the following abbreviations are used: h is human; r is rat; m is mouse; b is bovine; and y is yeast.
# In a final reaction volume of 25 μl, Rsk1(r) (5-10 mU) is incubated with 8 mM MOPS pH 7.0, 0.2 mM EDTA, 30 μM […], 10 mM MgAcetate and [γ-^33P-ATP] (Specific activity approx. 500 cpm/pmol, concentration as required). The reaction is initiated by the addition of Mg^2+[γ-^33P-ATP]. After incubation for 40 minutes at room temperature, the reaction is stopped by the addition of 5 μl of a 3% phosphoric acid solution. 10 μl of the reaction is then spotted onto a P30 filtermat and washed three times for 5 minutes in 75 mM phosphoric acid and once in methanol prior to drying and scintillation counting.
# Using the appropriate assay protocols as listed above, kinase inhibition data for Compounds 21 and 71 was determined for the following kinases: CDK1/cyclin B, CDK2/cyclin A, cSRC, Yes, MEK1, and Rsk1.
# Chain of Rsk1 (Q63531 whole entry): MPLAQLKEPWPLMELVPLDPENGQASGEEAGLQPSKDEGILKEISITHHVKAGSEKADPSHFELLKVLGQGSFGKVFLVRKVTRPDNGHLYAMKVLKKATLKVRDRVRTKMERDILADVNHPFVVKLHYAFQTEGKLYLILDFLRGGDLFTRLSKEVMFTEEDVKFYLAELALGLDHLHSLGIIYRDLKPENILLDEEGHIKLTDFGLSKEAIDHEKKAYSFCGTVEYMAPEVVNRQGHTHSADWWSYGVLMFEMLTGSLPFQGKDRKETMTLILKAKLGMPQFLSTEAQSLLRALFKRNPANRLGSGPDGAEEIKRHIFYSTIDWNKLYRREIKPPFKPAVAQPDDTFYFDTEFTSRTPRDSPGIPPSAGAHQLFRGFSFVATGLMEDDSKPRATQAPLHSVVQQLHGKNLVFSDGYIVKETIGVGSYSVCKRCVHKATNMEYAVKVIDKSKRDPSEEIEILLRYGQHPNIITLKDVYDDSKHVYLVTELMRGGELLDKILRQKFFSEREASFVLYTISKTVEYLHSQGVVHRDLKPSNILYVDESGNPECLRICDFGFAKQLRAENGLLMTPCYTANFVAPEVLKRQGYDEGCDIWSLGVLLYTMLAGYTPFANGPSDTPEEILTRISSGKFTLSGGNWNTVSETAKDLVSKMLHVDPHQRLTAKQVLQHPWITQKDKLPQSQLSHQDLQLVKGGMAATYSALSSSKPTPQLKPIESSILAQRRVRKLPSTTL
row,Compound,Rsk1 (% control)
1,CC(C)(C)Cc1nc(-c2ccc3[nH]nc(-c4ccc5cc(OCc6ccccn6)ccc5c4)c3c2)n[nH]1 [Compound 92],29
2,COc1ccc2cc(-c3n[nH]c4ccc(-c5n[nH]c(CN6CCOCC6)n5)cc34)ccc2c1 [Compound 20],4
